Measured values reported in US20080039629A1, “Benzothniazole compositions and their use as ubiquition ligation inhibitors” (RIGEL PHARMACEUTICALS, INC., priority 2003, published 2008).

Biological target: T1, E1 and His-E2 Ubch10 (Homo sapiens, UniProt P22314)
T1 construct: host or cells: E. coli (His-Ubch10); Sf9 insect cells (E1)
T1 sequence (P22314 1-1058): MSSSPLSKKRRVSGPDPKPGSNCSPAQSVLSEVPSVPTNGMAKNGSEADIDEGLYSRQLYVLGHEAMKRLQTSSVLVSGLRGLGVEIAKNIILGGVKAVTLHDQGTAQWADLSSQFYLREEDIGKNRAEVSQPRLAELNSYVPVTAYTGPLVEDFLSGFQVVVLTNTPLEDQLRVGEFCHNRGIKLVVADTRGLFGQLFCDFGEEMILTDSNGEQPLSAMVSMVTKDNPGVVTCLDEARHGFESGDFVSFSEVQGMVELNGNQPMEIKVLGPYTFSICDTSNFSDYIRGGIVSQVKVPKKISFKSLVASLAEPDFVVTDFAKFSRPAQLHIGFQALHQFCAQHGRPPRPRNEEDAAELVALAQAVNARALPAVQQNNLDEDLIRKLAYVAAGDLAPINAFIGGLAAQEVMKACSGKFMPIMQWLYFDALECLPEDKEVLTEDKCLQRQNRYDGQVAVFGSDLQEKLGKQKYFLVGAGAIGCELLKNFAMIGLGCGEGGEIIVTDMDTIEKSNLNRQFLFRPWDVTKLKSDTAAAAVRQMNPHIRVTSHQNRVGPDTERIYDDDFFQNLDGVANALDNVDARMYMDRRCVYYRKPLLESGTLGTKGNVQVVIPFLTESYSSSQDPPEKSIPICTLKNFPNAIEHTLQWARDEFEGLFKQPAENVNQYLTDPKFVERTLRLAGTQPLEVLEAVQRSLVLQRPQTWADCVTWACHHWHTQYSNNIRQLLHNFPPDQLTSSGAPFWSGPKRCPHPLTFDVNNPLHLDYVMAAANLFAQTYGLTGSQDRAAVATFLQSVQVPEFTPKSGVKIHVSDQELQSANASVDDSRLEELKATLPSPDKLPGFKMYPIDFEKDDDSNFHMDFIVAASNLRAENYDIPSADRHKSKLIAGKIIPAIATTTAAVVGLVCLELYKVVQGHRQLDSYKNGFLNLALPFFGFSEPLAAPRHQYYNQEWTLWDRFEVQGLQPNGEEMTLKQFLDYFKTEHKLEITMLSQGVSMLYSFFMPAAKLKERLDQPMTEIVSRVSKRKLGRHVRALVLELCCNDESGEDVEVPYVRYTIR
Assay: E1 to E2 transfer assay, His-E2 Ubch10, 1.0 μM ATP (low ATP)
Format: biochemical
Settings: Table 5, ATP inhibition properties; inhibition measured using IC50 values
Description: Biological assays for determining the transfer of ubiquitin from the E1 activating agent to the E2 conjugating agent are described in U.S. patent application Ser. Nos. 09/542,497 and 09/826,312 as well as in the PCT Application WO 01/75145, all of which are incorporated by reference in their entirety. The following assay example illustrates one way by which the ubiquitin ligase inhibitory activity of the compounds of the invention can be assayed. This assay example is not meant to limit in any way the use of the compounds of the invention as ubiquitin ligase inhibitors.
The attachment of a ubiquitin moiety to the E2 conjugating agent was assayed using Flag-ubiquitin that was purified from E. coli, E2 Ubch10 that was purified as a His-Ubch10 from E. coli, and E1 that was purified from Sf9 insect cells (Affiniti Research Products, Exeter, U.K.). The wells of a Nickel-substrate 96-well plate (Pierce Chemical) were blocked with 100 μl of 1% casein/phosphate buffered saline (PBS) for 1 hour at room temperature. The blocked Nickel-substrate plate was then washed three times with 200 μl of PBST (0.1% Tween-20 in PBS). Subsequently, Flag-ubiquitin reaction solution was added to each well so that the final concentration was 62.5 mM Tris pH 7.5, […], 0.75 mM DTT, 1.0 μM ATP (low ATP), and 100 ng Flag-ubiquitin. The final reaction solution volume was fixed to 80 μl with Millipore-filtered water. To this was added the following: a ubiquitin agent inhibitor in 10 μl of DMSO, 10 μl of E1 and His-E2 Ubch10 in 20 mM Tris buffer, pH 7.5, and 5% glycerol so that there was 10 ng/well of E1 and 20 ng/well of His-E2 Ubch10. The reaction was then allowed to proceed at room temperature for 1 hour.
After 1 hour, the wells were washed three times with 200 μl of PBST and the amount of E2-ubiquitin complex was measured. For measuring the amount of the E2-ubiquitin complex, 100 μl of Mouse anti-flag diluted 1:10,000 (Sigma Aldrich Fluka Chemicals, St. Louis, Mo.) and anti-mouse HRP diluted 1:15,000 (Jackson Immunoresearch labs, West Grove, Pa.) in PBST were added to each well and allowed to incubate at room temperature for another hour. The wells were then washed three times with 200 μl of PBST and 100 μl of luminol substrate (⅕ dilution) was added. The luminescence of each well was then measured using a […] to calculate the amount of E2-ubiquitin complex. This procedure was repeated using His-E2 Ubch5C instead of His-E2 Ubch10.
The table below illustrates the inhibitory properties of the pharmaceutical compostions of the invention comprising the compounds listed in the table using the assays described above. Inhibition was measured using IC50 values.

In the case of `CCCc1ccc(C(=O)Nc2nc3ccc(OC)cc3s2)cc1` [Compound 81, N-(6-methoxybenzo[d]thiazol-2-yl)-4-propylbenzamide], the UBC10 is reported as “++ (++ indicates inhibition at 50 μM or or less)”.

With `CCCCc1ccc(C(=O)Nc2nc3ccc(OC)cc3s2)cc1` [Compound 82, 4-butyl-N-(6-methoxybenzo[d]thiazol-2-yl)benzamide] the UBC10 was “++ (++ indicates inhibition at 50 μM or or less)”.

In the case of `CCCCCCc1ccc(C(=O)Nc2nc3ccc(OC)cc3s2)cc1` [Compound 83, 4-hexyl-N-(6-methoxybenzo[d]thiazol-2-yl)benzamide], the UBC10 is reported as “−− (−− indicates marginal or no inhibition detected with this assay)”.

With `Cc1ccc(C(=O)Nc2nc3ccccc3s2)cc1` [Compound 84, N-(benzo[d]thiazol-2-yl)-4-methylbenzamide] the UBC10 was “++ (++ indicates inhibition at 50 μM or or less)”.

For `CCc1ccc(C(=O)Nc2nc3ccccc3s2)cc1` [Compound 85, N-(benzo[d]thiazol-2-yl)-4-ethylbenzamide], the UBC10 was “++ (++ indicates inhibition at 50 μM or or less)”.

`Nc1ccc(C(=O)Nc2nc3ccccc3s2)cc1` [Compound 86, 4-amino-N-(benzo[d]thiazol-2-yl)benzamide] was tested, and the UBC10 was “−− (−− indicates marginal or no inhibition detected with this assay)”.

For `COc1ccc2nc(NC(=O)c3ccco3)sc2c1` [Compound 87, N-(6-methoxybenzo[d]thiazol-2-yl)furan-2-carboxamide], the UBC10 was “++ (++ indicates inhibition at 50 μM or or less)”.

For `O=C(Nc1nc2ccccc2s1)c1ccco1` [Compound 88, N-(benzo[d]thiazol-2-yl)furan-2-carboxamide], the UBC10 was “−− (−− indicates marginal or no inhibition detected with this assay)”.

For `O=C(Nc1nc2ccccc2s1)c1cccs1` [Compound 89, N-(benzo[d]thiazol-2-yl)thiophene-2-carboxamide], the UBC10 was “−− (−− indicates marginal or no inhibition detected with this assay)”.

With `CCOc1ccc2nc(NC(=O)c3ccc4c(c3)OCCO4)sc2c1` [Compound 90, N-(6-ethoxybenzo[d]thiazol-2-yl)-2,3-dihydrobenzo[b][1,4]dioxine-6-carboxamide] the UBC10 was “++ (++ indicates inhibition at 50 μM or or less)”.

For `CCOc1ccc2nc(NC(=O)c3ccc(CC)cc3)sc2c1` [Compound 91, N-(6-ethoxybenzo[d]thiazol-2-yl)-4-ethylbenzamide], the UBC10 was “−− (−− indicates marginal or no inhibition detected with this assay)”.

In the case of `CCOc1ccc2nc(NC(=O)c3ccc(C)cc3)sc2c1` [Compound 92, N-(6-ethoxybenzo[d]thiazol-2-yl)-4-methylbenzamide], the UBC10 is reported as “−− (−− indicates marginal or no inhibition detected with this assay)”.

With `CCOc1ccc2nc(NC(=O)c3ccc(C)c(C)c3)sc2c1` [Compound 93, N-(6-ethoxybenzo[d]thiazol-2-yl)-3,4-dimethylbenzamide] the UBC10 was “−− (−− indicates marginal or no inhibition detected with this assay)”.

In the case of `CCOc1ccc2nc(NC(=O)c3ccc(NC(C)=O)cc3)sc2c1` [Compound 94, 4-acetamido-N-(6-ethoxybenzo[d]thiazol-2-yl)benzamide], the UBC10 is reported as “−− (−− indicates marginal or no inhibition detected with this assay)”.

`COc1ccc2nc(NC(=O)c3ccc(Cl)c(Cl)c3)sc2c1` [Compound 95, 3,4-dichloro-N-(6-methoxybenzo[d]thiazol-2-yl)benzamide] was tested, and the UBC10 was “++ (++ indicates inhibition at 50 μM or or less)”.

In the case of `CCOc1ccc2nc(NC(=O)c3ccc(Cl)c(Cl)c3)sc2c1` [Compound 96, 3,4-dichloro-N-(6-ethoxybenzo[d]thiazol-2-yl)benzamide], the UBC10 is reported as “++ (++ indicates inhibition at 50 μM or or less)”.

With `COc1ccc2nc(NC(=O)NC34CC5CC(CC(C5)C3)C4)sc2c1` [Compound 97, N-1-adamantyl-N′-(6-methoxy-1,3-benzothiazol-2-yl)urea] the UBC10 was “++ (++ indicates inhibition at 50 μM or or less)”.

For `COc1ccc2nc(NC(=O)Nc3ccccc3)sc2c1` [Compound 98, 1-(6-methoxybenzo[d]thiazol-2-yl)-3-phenylurea], the UBC10 was “−− (−− indicates marginal or no inhibition detected with this assay)”.

For `COc1ccc2nc(NC(=O)Nc3ccc(Cl)cc3)sc2c1` [Compound 99, 1-(4-chlorophenyl)-3-(6-methoxybenzo[d]thiazol-2-yl)urea], the UBC10 was “−− (−− indicates marginal or no inhibition detected with this assay)”.

`COc1ccc2nc(NC(=O)Nc3cccc(F)c3)sc2c1` [Compound 100, 1-(3-fluorophenyl)-3-(6-methoxybenzo[d]thiazol-2-yl)urea] was tested, and the UBC10 was “++ (++ indicates inhibition at 50 μM or or less)”.

In the case of `COc1ccc2nc(NC(=O)c3ccc(C)cc3C)sc2c1` [Compound 101, N-(6-methoxybenzo[d]thiazol-2-yl)-2,4-dimethyibenzamide], the UBC10 is reported as “++ (++ indicates inhibition at 50 μM or or less)”.

For `COc1ccc2nc(NC(=O)c3sccc3C)sc2c1` [Compound 103, N-(6-methoxybenzo[d]thiazol-2-yl)-3-methylthiophene-2-carboxamide], the UBC10 was “++ (++ indicates inhibition at 50 μM or or less)”.

In the case of `COc1ccc2nc(NC(=O)c3sccc3Cl)sc2c1` [Compound 104, 3-chloro-N-(6-methoxybenzo[d]thiazol-2-yl)thiophene-2-carboxamide], the UBC10 is reported as “−− (−− indicates marginal or no inhibition detected with this assay)”.

With `COc1ccc(OC)c(NC(=O)Nc2nc3ccc(OC)cc3s2)c1` [Compound 120, 1-(2,5-dimethoxyphenyl)-3-(6-methoxybenzo[d]thiazol-2-yl)urea] the UBC10 was “++ (++ indicates inhibition at 50 μM or or less)”.

`COc1ccc2nc(NC(=O)Nc3cccc(Cl)c3Cl)sc2c1` [Compound 124, 1-(2,3-dichlorophenyl)-3-(6-methoxybenzo[d]thiazol-2-yl)urea] was tested, and the UBC10 was “−− (−− indicates marginal or no inhibition detected with this assay)”.

In the case of `CCOC(=O)c1ccc(NC(=O)Nc2nc3ccc(OC)cc3s2)cc1` [Compound 126], the UBC10 is reported as “−− (−− indicates marginal or no inhibition detected with this assay)”.

With `CCOC(=O)c1ccc(NC(=O)Nc2nc3ccc(OCC)cc3s2)cc1` [Compound 136, ethyl 4-(3-(6-ethoxybenzo[d]thiazol-2-yl)ureido)benzoate] the UBC10 was “−− (−− indicates marginal or no inhibition detected with this assay)”.

With `COc1ccc2nc(NC(=O)Nc3ccc(C#N)cc3)sc2c1` [Compound 137, 1-(4-cyanophenyl)-3-(6-methoxybenzo[d]thiazol-2-yl)urea] the UBC10 was “−− (−− indicates marginal or no inhibition detected with this assay)”.

In the case of `COc1ccc2nc(NC(=O)c3cccs3)sc2n1` [Compound 138, N-(5-methoxythiazolo[5,4-b]pyridin-2-yl)thiophene-2-carboxamide], the UBC10 is reported as “++ (++ indicates inhibition at 50 μM or or less)”.
